The values that follow are results of earlier work, collected in article doi:10.1101/2024.08.20.608791v1 (bioRxiv, 2024).

The conditions of series [1]: <LOQ.
The conditions of series [2]: humans; for estimated / proposed fa: oral, compounds without fa values in man, estimate or proposal only.
For series [3] the following is noted: assay not specified.
The conditions of series [4]: oral bioavailability in animals, species not stated.
The conditions of series [5]: for observed F: oral bioavailability, not marked as animal data, source not stated per compound.

Usually log P stands for the decadic logarithm of the partition coefficient of the neutral form, usually between octanol and water. As to `CC1(C)CCC(CN2CCN(c3ccc(C(=O)NS(=O)(=O)c4ccc(NCC5CCOCC5)c([N+](=O)[O-])c4)c(Oc4cnc5[nH]ccc5c4)c3)CC2)=C(c2ccc(Cl)cc2)C1` [Venetoclax], where the note is “as reported in Table 1 and text, source and method not stated”, the “log P” value was 8.2. The “solubility in water (in words)” value in series [1] was “practically insoluble in water”. The “fraction absorbed (fa) of approved oral drugs” value in series [2] is more than 65%.

Consider `CC[C@@H]([C@H](C)O)n1ncn(-c2ccc(N3CCN(c4ccc(OC[C@@H]5CO[C@@](Cn6cncn6)(c6ccc(F)cc6F)C5)cc4)CC3)cc2)c1=O` [posaconazole], for which, in series [3], the “in vitro permeability (in words)” value is “high in vitro permeability”. Besides, the “calculated log P” value (calculated) is given as 5.4. The “experimentally determined log P” value (experimental) is listed as 2.4. For the same compound, in series [1], the “solubility in water (in words)” value is recorded as “practically insoluble in water”. Further, the “observed F in animals” value in series [4] is recorded as 52%.

Turning to desmopressin, the “observed F” value in series [5] is 0.08-0.16%.

For `C=CC[C@@H]1/C=C(\C)C[C@H](C)C[C@H](OC)[C@H]2O[C@@](O)(C(=O)C(=O)N3CCCC[C@H]3C(=O)O[C@H](/C(C)=C/[C@@H]3CC[C@@H](O)[C@H](OC)C3)[C@H](C)[C@@H](O)CC1=O)[C@H](C)C[C@@H]2OC` [tacrolimus], in series [2], the “estimated / proposed fa” value is recorded as more than 15%.

As for semaglutide, the “observed F” value in series [5] was 0.8%.

As to `C[C@H]1O[C@@H](O[C@H]2[C@@H](O)C[C@H](O[C@H]3[C@@H](O)C[C@H](O[C@H]4CC[C@@]5(C)[C@H](CC[C@@H]6[C@@H]5C[C@@H](O)[C@]5(C)[C@@H](C7=CC(=O)OC7)CC[C@]65O)C4)O[C@@H]3C)O[C@@H]2C)C[C@H](O)[C@@H]1O` [Digoxin], the “Caco-2 permeability (in words)” value in the series with Caco-2 (Caco-2 experiments) is listed as “moderate permeability”. In the series with Caco-2 (underprediction of human fa from Caco-2), the “fa predicted using the Caco-2 assay” value is listed as approximately 50%.

Take anidulafungin: the F in series [5] (species not stated, quoted as comparison for micafungin) is on record as 2-7%. Further, the “solubility in water (in words)” value in series [1] is given as “practically insoluble in water”.

Regarding `CO[C@H]1C[C@H](O[C@H]2CC[C@]3(C=O)[C@H]4CC[C@]5(C)[C@@H](C6=CC(=O)OC6)CC[C@]5(O)[C@@H]4CC[C@]3(O)C2)O[C@H](C)[C@H]1O[C@@H]1O[C@H](CO[C@@H]2O[C@H](CO)[C@@H](O)[C@H](O)[C@H]2O)[C@@H](O)[C@H](O)[C@H]1O` [k-strophanthoside], the “fraction absorbed (fa) of approved oral drugs” value in series [2] is reported as 16%.

In the case of `COC[C@H]1C[C@@H](c2ncc(-c3ccc4c(c3)COc3cc5c(ccc6nc([C@@H]7CC[C@H](C)N7C(=O)[C@@H](NC(=O)OC)C(C)C)[nH]c65)cc3-4)[nH]2)N(C(=O)[C@H](NC(=O)OC)c2ccccc2)C1` [velpatasvir], the “solubility in water (in words)” value in series [1] was “practically insoluble in water”. For the same compound, the “estimated / proposed fa” value in series [2] was 25-30%.

On to `CC(=O)O[C@H]1C(=O)[C@@]2(C)[C@H]([C@H](OC(=O)c3ccccc3)[C@]34OC(=O)O[C@H]3[C@H](OC(=O)[C@H](O)[C@H](CC(C)C)NC(=O)OC(C)(C)C)C(C)=C1C4(C)C)[C@]1(OC(C)=O)CO[C@@H]1C[C@@H]2O` [ortataxel], for which, in series [3], the “in vitro permeability (in words)” value is “moderate in vitro permeability”. Moreover, in series [4], the “observed F in animals” value is listed as 25%.

`CC1(C)CC[C@]2(NC(=O)C(C)(F)F)CC[C@]3(C)[C@H](C(=O)C=C4[C@@]5(C)C=C(C#N)C(=O)C(C)(C)[C@@H]5CC[C@]43C)[C@@H]2C1` [omaveloxolone]: the “observed F” value in series [5] is 8%.

As to `CC1(C)S[C@@H]2[C@H](NC(=O)[C@H](NC(=O)N3CCN(S(C)(=O)=O)C3=O)c3ccccc3)C(=O)N2[C@H]1C(=O)O` [mezlocillin], the “estimated / proposed fa” value in series [2] was “zero”.

Regarding `C=C[C@@H]1C[C@]1(NC(=O)[C@@H]1C[C@@H](Oc2cc(-c3csc(NC(=O)C(C)C)n3)nc3c(Br)c(OC)ccc23)CN1C(=O)[C@@H](NC(=O)OC1CCCC1)C(C)(C)C)C(=O)O` [faldaprevir], the “observed F in animals” value in series [4] was 26-39%.

Regarding cholecystokinin octapeptide, the “observed F” value in series [5] is recorded as 0.2%.

Turning to `CC(C)c1nc(CN(C)C(=O)N[C@@H](CCN2CCOCC2)C(=O)N[C@H](CC[C@H](Cc2ccccc2)NC(=O)OCc2cncs2)Cc2ccccc2)cs1` [cobicistat], the “observed F in animals” value in series [4] was 11-33%.

Regarding `CC[C@@H]1C[C@]1(NC(=O)[C@@H]1C[C@@H](Oc2cc(-c3csc(NC(C)C)n3)nc3c(Cl)c(OCCN4CCOCC4)ccc23)CN1C(=O)[C@@H](NC(=O)O[C@@H]1C[C@@H]2C[C@@H]2C1)C(C)(C)C)C(=O)O` [vedroprevir], the “in vitro permeability (in words)” value in series [3] was “low in vitro permeability”. Besides, the “solubility in water (in words)” value in series [1] is “practically insoluble in water”. Also, in series [4], the “observed F in animals” value was 49-123%.
